This passage reports Ki results from patent US20110009435A1, “HETERO BICYCLIC CARBOXAMIDE DERIVATIVES AND THEIR PHARMACEUTICAL USE AND COMPOSITIONS” (Pfizer, Inc., priority 2007, published 2011).

One assay addresses T1, Human recombinant MMP-2 (Homo sapiens, UniProt P08253).
T1 construct: made in house; host or cells: MMP-2-transfected p2AHT2 cells
T1 sequence (P08253 110-660): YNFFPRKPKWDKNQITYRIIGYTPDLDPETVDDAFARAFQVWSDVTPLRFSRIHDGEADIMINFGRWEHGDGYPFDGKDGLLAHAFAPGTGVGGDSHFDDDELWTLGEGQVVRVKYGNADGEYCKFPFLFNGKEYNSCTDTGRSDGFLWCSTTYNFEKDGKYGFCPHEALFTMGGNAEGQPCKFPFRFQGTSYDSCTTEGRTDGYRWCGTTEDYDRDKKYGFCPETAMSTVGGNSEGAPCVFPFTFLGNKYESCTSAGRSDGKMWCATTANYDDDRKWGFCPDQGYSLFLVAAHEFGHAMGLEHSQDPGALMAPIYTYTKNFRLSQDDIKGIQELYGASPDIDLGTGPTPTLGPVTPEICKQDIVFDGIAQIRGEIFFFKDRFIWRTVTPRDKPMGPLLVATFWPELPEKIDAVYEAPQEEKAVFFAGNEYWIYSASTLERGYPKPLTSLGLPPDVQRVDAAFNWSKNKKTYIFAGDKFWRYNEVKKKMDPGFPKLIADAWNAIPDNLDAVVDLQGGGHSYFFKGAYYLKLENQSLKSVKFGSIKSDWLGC
Briefly: In vitro MMP inhibition assay, MMP-2 (fluorogenic peptide substrate cleavage, Ki). In kind it is biochemical. Particulars: human MMP-2, full length (FL); read-out: hMMP Ki 02/FL. Here is the method: Matrix Metalloproteinase inhibitor compounds were analyzed in in vitro MMP Inhibition assays to determine their ability to inhibit the MMP cleavage of peptide substrates. Inhibition constants (Ki) were calculated from the assayed compound-MMP interactions.
Human recombinant MMP-1, MMP-2, MMP-3, MMP-7, MMP-9, MMP-12, MMP-13, MMP-14 and MMP-15 were used in these assays. The enzymes are prepared following known laboratory procedures. Protocols for the preparation and use of these enzymes are available in the scientific literature. See, e.g., Enzyme Nomenclature (Academic Press, San Diego, Calif., 1992) and the citations therein. See also Frije et al., J. Biol. Chem., 26(24), 16766-73 (1994).
The MMP-1 proenzyme may be purified from spent media of MMP-1-transfected HT-1080 cells and the protein purified on a zinc chelating column. The MMP-2 proenzyme may be purified by gelatin Sepharose chromatography from MMP-2-transfected p2AHT2 cells. […]
The inhibitors are analyzed using a single low enzyme concentration with a single substrate concentration fixed at or below the Km. […] Apparent inhibitory constants are determined by non-linear regression of reaction velocity as a function of inhibitor and enzyme concentration using Morrison's equation, as described by Kuzmic, Anal. Biochem. 286, 45-50 (2000). […]

In another assay the target is T2, Human recombinant MMP-13 (Homo sapiens, UniProt P45452).
T2 construct: made in house; host or cells: baculovirus expression (insect cells)
Briefly: In vitro MMP inhibition assay, MMP-13 (fluorogenic peptide substrate cleavage, Ki). It counts as biochemical. Particulars: human MMP-13, full length (FL); read-out: hMMP Ki 13/FL. An outline of the steps: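 Baculovirus-expressed proenzyme, APMA- or trypsin-activated, preincubated 1 h at room temperature with inhibitor in pH 7.5 Tris/NaCl/CaCl2 buffer, 1% DMSO. Then 4 μM MCA/Dpa quenched peptide added; fluorescence rate read at 330/420 nm. Ki from Morrison-equation regression, substrate at or below Km, uncorrected.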

For the compound `COc1cccc(CNC(=O)c2nc3ccc(F)c(OCCC4CCN(C(=O)CO)CC4)c3c(=O)[nH]2)c1` [Example 34, 6-fluoro-5-[2-(1-glycoloylpiperidin-4-yl)ethoxy]-N-(3-methoxybenzyl)-4-oxo-3,4-dihydroquinazoline-2-carboxamide], the Ki at Human recombinant MMP-2 was 5650 nM; on Human recombinant MMP-13, 0.118 nM.
